# Results as given in US20240345082A1, “IDENTIFICATION AND APPLICATION OF SELECTIVE CELL SURFACE MARKERS AND ADDITIONAL METHODS FOR HUMAN RED/GREEN CONE PHOTORECEPTOR PRECURSOR ENRICHMENT” (Wisconsin Alumni Research Foundation, priority 2023, published 2024).
# What was measured:
# CPP microaggregates [1] = assay: Flow cytometric quantification of THRB2:tdTomato-positive red/green CPP cells in CPP microaggregates; type: cell-based, human; conditions: CPP microaggregate formation combined with MMC treatment (250 ng/ml), 10 days post microaggregate formation; increased from 17% (unsorted CRR ROs at D60)
# CPP microaggregates [2] = assay: Ki-67 immunostaining (IHC) of MMC-treated ALCAM/CD166-sorted CPP microaggregates; conditions: for Ki-67 positive cells in CPP microaggregates: 7 dpt
smiles,measurement,setting,value
"CO[C@@]12[C@H](COC(N)=O)C3=C(C(=O)C(C)=C(N)C3=O)N1C[C@@H]1N[C@@H]12 [MMC, mitomycin C]",percentage of THRB2:tdTomato-positive red/green CPP cells,CPP microaggregates [1],89.5%
same,Ki-67 positive cells in CPP microaggregates,CPP microaggregates [2]; 100 ng/mL MMC,few
same,Ki-67 positive cells in CPP microaggregates,CPP microaggregates [2]; 250 ng/mL MMC,almost nil
same,morphology of CPP microaggregates,CPP microaggregates [2]; 500 ng/mL MMC,noticeable disruption
same,Ki-67 positive cells in CPP microaggregates,CPP microaggregates [2]; 500 ng/mL MMC,almost nil
